According to patent US8361711B2, “Tools and methods useful in characterising the immunotoxic activity of xenobiotic substances” (National Institute of Public Health and the Environment, …, priority 2004, dated 2013):

Columns and labels:
[1] = tested on: cell lines developed in the project
Description: The basic cytotoxicty assay employed was LDH release. Several cytotoxicity assays were performed independently in two laboratories. […] In addition, the cytotoxicity associated with the solvent was also tested to eliminate the possibility of interference in the test outcome.
Cells were plated in 24 well microtiter plates at a density of 0.5×10^6 cells/mL and with a final volume of 1.5 mL/well. Two controls were included for each cell line, in each experiment.

[2] = tested on: IFN-γ fused to a stabile form of EGFP; test: Clones with IFN-γ regulatory elements fused to a stabile form of EGFP; assay type: cell-based, mouse; details: all tested concentrations
Description: (§1) Samples were analyzed in an EPICS® XL-MCL Coulter flow cytometer with Expo v.2 Analysis Software/Expo32 Analysis Software (Applied Cytometry Systems, Sheffield, UK). or any other suitable flow cytometer. Viable and dead cells were gated separately and results were determined based on fluorescence associated with viable cells only. Regions were set in control cells and the same regions were used in induction controls and chemically challenged cells. Percent positive cells and fluorescence intensity were noted and used in further calculations.
(§2) Index numbers were calculated from the median fluorescence intensity of viable cells. Cells incubated in the absence or presence of ionomycin/PMA were analysed separately. Each clone incubated with or without ionomycin/PMA, but without further chemicals/compounds was defined as index number=1, and the index numbers for the other exposures were calculated from this.
(§3) One way ANOVAs (one way analysis of variance) were performed. In cases where normality failed, we used Kruskal-Wallis One Way Analysis of Variance on Ranks. If the differences between groups were statistically significant (p<0.05), we continued with tests for multiple comparisons. In normally distributed data we used Bonferroni t-test and multiple comparisons versus the control. The control was chosen to be the sample incubated in the presence or absence of ionomycin/PMA only. When normality failed we used […] for multiple comparisons versus the control.

[3] = tested on: IL-2 fused to a stabile form of EGFP; test: Clones with IL-2 regulatory elements fused to a stabile form of EGFP; assay type: cell-based, mouse; details: all tested concentrations
Description: as §1, §2, §3

With `CC1(C)S[C@@H]2[C@H](NC(=O)Cc3ccccc3)C(=O)N2[C@H]1C(=O)[O-].[Na+]` [penicillin G, Penicillin G (Benzylpenicillin) sodium salt] the “toxicity (LDH-assay)” value [1] was “did not find penicillin G to be toxic”, the “IFN-γ expression, stabile EGFP clone” value ([2]; absence of ionomycin/PMA) was “failed to alter expression” and the “IFN-γ expression, stabile EGFP clone” value ([2]; presence of ionomycin/PMA) was “failed to alter expression”. For the same compound, the “IL-2 expression, stabile EGFP clone” value ([3]; absence of ionomycin/PMA) was “failed to alter expression” and the “IL-2 expression, stabile EGFP clone” value ([3]; presence of ionomycin/PMA) was “failed to alter expression”.
